Consider 10 compounds from patent US12343429B2, “Method of delivery of DNA or RNA cargo unshielded lipid nanoparticles and compositions thereof” (NanoVation Therapeutics Inc., priority 2023, dated 2025).

Data set [1] is described as follows: LNP formulability and stability through dialysis, concentration and storage. Format: physicochemical. The note with it: for behaviour in dialysis: PEG-less mRNA-LNP 1/structural lipid/cholesterol 27.4/50/22.6, unmodified method; for viability of LNPs, modified method with 25 mM sodium acetate dilution: all ratios of LNP:NaOAc (v:v); for physiochemical properties/stability, modified method with 1× PBS dilution after T-mixing: all ratios of LNP:PBS tested, after dialysis and after concentration to >0.25 mg/mL and overnight storage; for ability to be formulated in PEG-less mRNA-LNPs: unmodified ethanol mixing method, ionizable lipid/DSPC/chol 27.4/50/22.6, N/P 9 (FIG. 6); for behaviour after dialysis and concentration/storage: PEG-less mRNA-LNP, unmodified method, 27.4/50/22.6; for physiochemical characteristics, modified method with 25 mM sodium acetate dilution: 1:2-1:3 volume ratio. How it is done: Unless otherwise specified, the LNPs were prepared by dissolving mRNA or plasmid DNA (pDNA) in 25 mM sodium acetate, pH 4.0, while the lipid components at the mole % specified were dissolved in absolute ethanol. The lipids in ethanol and the nucleic acid cargo in buffer were combined in a 1:3 volume by volume ratio using a t-junction with dual-syringe pump. The solutions were pushed through the t-junction at a combined flow rate of 20 mL/min (5 mL/minute for the lipid-containing syringe, 15 mL/minute for the mRNA-containing syringe). The mixture was subsequently dialyzed overnight against at least ˜100 volumes of 1× phosphate buffered saline (PBS), pH 7.4 using Spectro/Por™ dialysis membranes (molecular weight cut-off 12 000-14 000 Da). The LNPs were concentrated as required with an Amicon Ultra™ 100 000 MWCO (molecular weight cut-off), regenerated cellulose concentrator.
After T-mixing, 1× phosphate buffered saline (PBS) or other buffer as indicated, was added to the formulation mixture in increasing ratios of LNP: 1× buffer prior to dialysis and gently mixed, followed by transfer to dialysis in 1×PBS (or other suitable buffer as indicated) followed by processing as usual.
After the T-mixing (see Materials and Methods above), 1× phosphate buffered saline (PBS) was added to the formulation mixture in increasing volume ratios of LNP: 1× PBS (as indicated in FIGS. 7A-F) prior to dialysis followed by gentle mixing and transfer of the mixture to a dialysis bag in 1×PBS overnight followed by processing as usual. […] Physiochemical characteristics (particle size, PDI and encapsulation %) were measured after dialysis and after dialysis and concentration of the LNPs to >0.25 mg/mL and overnight storage.

Data set [2] in a line: Encapsulation efficiency (RiboGreen), particle size and PDI (Zetasizer Nano ZS) of LNPs. Format: physicochemical. The note with it: PEG-less mRNA-LNP, unmodified method, 27.4/50/22.6 (FIG. 6). How it is done: Encapsulation efficiency was calculated by determining unencapsulated mRNA content by measuring the fluorescence upon the addition of RiboGreen™ to the mRNA-LNP (Fi) and comparing this value to the total mRNA content that is obtained upon lysis of the LNP by 2% Triton X-100 (Ft): % encapsulation=(Ft−Fi)/Ft×100.
The particle size and polydispersity index (PDI) were characterized using a Zetasizer Nano ZS™.

Setting [3] is: buffer-to-LNP ratio as low as 1:1 (v:v).
Setting [4] is: dilution ratios below 1:1 (v:v).

`CCCCCCCCCCCCCC(=O)OC[C@H](COP(=O)([O-])OCC[N+](C)(C)C)OC(=O)CCCCCCCCCCCCC` [DMPC, dimyristoylphosphatidylcholine]: the “physiochemical characteristics after concentration/storage” value in data set [1] (12/DMPC/cholesterol 27.4/50/22.6, unmodified method (FIG. 13)) is “deteriorated after concentration/storage”. For the same compound, the “physiochemical characteristics / behaviour upon dialysis” value in data set [1] (PEG-less LNP with 12 as ionizable lipid, helper lipid screen, unmodified method (FIG. 13)) is on record as “less ideal physiochemical characteristics”.
Take `CCCCCCCC/C=C\CCCCCCCC(=O)OC[C@H](COP(=O)([O-])OCC[N+](C)(C)C)OC(=O)CCCCCCC/C=C\CCCCCCCC` [DOPC, dioleoylphosphatidylcholine]: the behaviour in dialysis result in data set [1] was “agglomerated in dialysis”.
Regarding `CCCCCCCC/C=C\CCCCCCCC(=O)OC[C@H](COP(=O)(O)OCCN)OC(=O)CCCCCCC/C=C\CCCCCCCC` [DOPE, dioleoylphosphatidylethanolamine], in data set [1], the behaviour in dialysis entry is reported as “agglomerated in dialysis”.
For the compound `CCCCCCCCCCCCCCCCCC(=O)OC[C@H](COP(=O)([O-])OCC[N+](C)(C)C)OC(=O)CCCCCCCCCCCCCCCCC` [DSPC, distearoylphosphatidylcholine], the “change in physiochemical characteristics after concentration and refrigerated storage” value in data set [1] (PEG-less mRNA-LNP 1/structural lipid/cholesterol 27.4/50/22.6, unmodified method (FIGS. 12A, 12B)) is given as “no change”.
In the case of `CCCCCCCCC(=O)OC(CCCCCC(CCCCCC(CSC1CCCCC1)OC(=O)CCCCCCCC)OC(=O)CCCN(C)C)CSC1CCCCC1` (stereo not drawn) [Ionizable lipid 1], in data set [1], the “viability of LNPs, modified method with 25 mM sodium acetate dilution” value is given as “viable LNPs”; the “physiochemical properties/stability, modified method with 1× PBS dilution after T-mixing” value is on record as “acceptable physiochemical properties”; the “ability to be formulated in PEG-less mRNA-LNPs” value (from here on “ability to be formulated”) is given as “capable of being formulated”.
On to `CCCCCCCCCC(=O)OC(CCCCC1(CCCCC(CSC2CCCCC2)OC(=O)CCCCCCCCC)OCC(CCN(C)C)O1)CSC1CCCCC1` (stereo not drawn) [Ionizable lipid 12], for which, in data set [1], the “behaviour after dialysis and concentration/storage” value is “agglomerate after dialysis or were not stable after concentration/storage”; the “viability of LNPs, modified method with 25 mM sodium acetate dilution” value is “viable PEG-less LNPs”; the “ability to be formulated” value was “undesirable physiochemical characteristics”. The “stability, modified method with 1× PBS dilution” value in data set [1] (less than 1× volume of 1×PBS (1:0.25, 1:0.5, undiluted)) is given as “agglomerated upon dialysis”. Moreover, the “stability, modified method with 1× PBS dilution” value in data set [1] (ratios of at least 1:1 (v:v) addition of 1×PBS) is “stable after concentration and overnight storage”. Besides, in data set [2], the PDI result is “high” and the encapsulation efficiency result is given as “low”.
For `CCCCCCCC(=O)OC(CCCCCC)CSCCCCCC(CCCCCSCC(CCCCCC)OC(=O)CCCCCCC)N(C)CCCCO` (stereo not drawn) [Ionizable lipid 15], in data set [1], the “physiochemical characteristics, modified method with 25 mM sodium acetate dilution” value is “ideal physiochemical characteristics”; the “behaviour after dialysis and concentration/storage” value is “agglomerate after dialysis or were not stable after concentration/storage”; the “physiochemical properties/stability, modified method with 1× PBS dilution after T-mixing” value was “agglomerated in dialysis”; the “ability to be formulated” value was “undesirable physiochemical characteristics”. Moreover, in data set [1] (setting [3]), the “stability, modified method with 25 mM sodium acetate dilution” value is recorded as “stable PEG-less lcLNP compositions”. For the same compound, the “stability, modified method with 25 mM sodium acetate dilution” value in data set [1] (setting [4]) was “agglomerated in dialysis”. Further, in data set [2], the PDI result is given as “high” and the encapsulation efficiency result was “low”.
For the compound `CCCCCCC(CSCCCCCC(CCCCCSCC(CCCCCC)OC(=O)CCC1CCCCC1)N(C)CCCCO)OC(=O)CCC1CCCCC1` (stereo not drawn) [Ionizable lipid 16], the “stability, modified method with 1× PBS dilution” value in data set [1] (1:2 (v:v) dilution) is on record as “stable particles which did not agglomerate in dialysis”. In data set [1], the “physiochemical characteristics, modified method with 25 mM sodium acetate dilution” value is on record as “ideal physiochemical characteristics”; the “behaviour after dialysis and concentration/storage” value is on record as “agglomerate after dialysis or were not stable after concentration/storage”; the “ability to be formulated” value is on record as “undesirable physiochemical characteristics”. Also, the “stability, modified method with 25 mM sodium acetate dilution” value in data set [1] (setting [3]) is “stable PEG-less lcLNP compositions”. Besides, in data set [1] (setting [4]), the “stability, modified method with 25 mM sodium acetate dilution” value is given as “agglomerated in dialysis”. Moreover, in data set [2], the PDI result is “high” and the encapsulation efficiency entry is given as “low”.
On to `CCCCCCCCC(CCCCCC)C(=O)OCCCCCC(CCCCCSCC(CCCCCC)OC(=O)CCC1CCCCC1)N(C)CCCCO` (stereo not drawn) [Ionizable lipid 17], for which, in data set [1], the “behaviour after dialysis and concentration/storage” value was “agglomerate after dialysis or were not stable after concentration/storage”; the “ability to be formulated” value was “undesirable physiochemical characteristics”. Moreover, in data set [2], the PDI result is recorded as “high” and the encapsulation efficiency result is listed as “low”.
For `CCCCCCCCCCCOC(=O)CCCCCN(CCO)CCCCCCCC(=O)OC(CCCCCCCC)CCCCCCCC` [Ionizable lipid 21], the “ability to be formulated” value in data set [1] is listed as “capable of being formulated”.
